In patent US20130030017A1, “QUINOLINE DERIVATIVES AS ANTIBACTERIAL AGENTS” (priority 2005, published 2013):
≈ marks a conversion by molar mass, not a printed value.

Experiments:
Type in all cases: cell-based
[1] = tested on: Enterococcus faecalis (ATCC29212); assay: Microtitre plate assay, IC90 determination (EFA 29212); settings: 90% inhibitory concentration for bacterial growth, 37° C., resazurin fluorescence; for IC90: Enterococcus faecalis, ATCC29212, 24 h; for IC90 EFA 29212: 24 hours
Protocol: (§1) The bacteria used in this study were grown overnight in flasks containing 100 ml Mueller-Hinton Broth (Becton Dickinson—cat. no. 275730) in sterile de-ionized water, with shaking, at 37° C. Stocks (0.5 ml/tube) were stored at −70° C. until use. Bacteria titrations were performed in microtiter plates and colony forming units (CFUs) were determined. In general, an inoculum level of approximately 100 CFUs was used for susceptibility testing.
(§2) Flat-bottom, sterile 96-well plastic microtiter plates were filled with 180 μl of sterile deionized water, supplemented with 0.25% BSA. Subsequently, stock solutions (7.8× final test concentration) of compounds were added in 45 μl volumes in column 2 Serial five-fold dilutions (45 μl in 180 μl) were made directly in the microtiter plates from column 2 to reach column 11. Untreated control samples with (column 1) and without (column 12) inoculum were included in each microtiter plate. Depending on the bacteria type, approximately 10 to 60 CFU per well of bacteria inoculum (100 TCID50), in a volume of 100 μl in 2.8× Mueller-Hinton broth medium, was added to the rows A to H, except column 12. The same volume of broth medium without inoculum was added to column 12 in row A to H. The cultures were incubated at 37° C. for 24 hours under a normal atmosphere (incubator with open air valve and continuous ventilation). At the end of incubation, one day after inoculation, the bacterial growth was quantitated fluorometrically. Therefore resazurin (0.6 mg/ml) was added in a volume of 20 μl to all wells 3 hours after inoculation, and the plates were re-incubated overnight. A change in colour from blue to pink indicated the growth of bacteria. The fluorescence was read in a computer-controlled fluorometer (Cytofluor Biosearch) at an excitation wavelength of 530 nm and an emission wavelength of 590 nm. The % growth inhibition achieved by the compounds was calculated according to standard methods. The IC90 (expressed in μg/ml) was defined as the 90% inhibitory concentration for bacterial growth.

[2] = tested on: Pseudomonas aeruginosa (ATCC27853); assay: Microtitre plate assay, IC90 determination (PAE 27853); settings: 90% inhibitory concentration for bacterial growth, 37° C., resazurin fluorescence; for IC90: Pseudomonas aeruginosa, ATCC27853, 24 h; for IC90 PAE 27853: 24 hours
Protocol: as §1, §2

[3] = tested on: Streptococcus pneumoniae (ATCC6305); assay: Microtitre plate assay, IC90 determination (SPN 6305); settings: 90% inhibitory concentration for bacterial growth, 37° C., resazurin fluorescence; for IC90 SPN 6305: 24 hours; for IC90: Streptococcus pneumoniae, ATCC6305, 24 h
Protocol: as §1, §2

[4] = tested on: Streptococcus pyogens (ATCC8668); assay: Microtitre plate assay, IC90 determination (SPY 8668); settings: 90% inhibitory concentration for bacterial growth, 37° C., resazurin fluorescence; for IC90: Streptococcus, ATCC8668, 24 h; for IC90 SPY 8668: 24 hours
Protocol: as §1, §2

[5] = tested on: Staphylococcus aureus (ATCC29213); assay: Microtitre plate assay, IC90 determination (STA 29213); settings: 90% inhibitory concentration for bacterial growth, 37° C., resazurin fluorescence; for IC90 STA 29213: 24 hours; for IC90: Staphylococcus aureus, ATCC29213, 24 h
Protocol: as §1, §2

Row | IC90 [1] | IC90 [2] | IC90 SPN 6305 [3] | IC90 [4] | IC90 STA 29213 [5] | IC90 EFA 29212 [1] | IC90 PAE 27853 [2] | IC90 SPY 8668 [4] | IC90 [3] | IC90 [5] | SMILES
1 | 43.7 µg/mL (≈ 79.5 µM) | 43.7 µg/mL (≈ 79.5 µM) | 3.9 µg/mL (≈ 7.1 µM) | 8.7 µg/mL (≈ 15.8 µM) | 11.0 µg/mL (≈ 20 µM) | – | – | – | – | – | CSc1nc2ccc(Br)cc2cc1C(c1ccccc1)C(O)(CCc1ccccc1)CCN(C)C (centres unmarked) [Compound 11]
2 | – | – | 1.9 µg/mL (≈ 4.05 µM) | – | 7.4 µg/mL (≈ 15.8 µM) | 37.2 µg/mL (≈ 79.4 µM) | 37.2 µg/mL (≈ 79.4 µM) | 37.2 µg/mL (≈ 79.4 µM) | – | – | COc1nc2ccc(C)cc2cc1C(c1ccccc1)C(O)(CCc1ccccc1)CCN(C)C (centres unmarked) [Compound 2]
3 | 42.2 µg/mL (≈ 79.4 µM) | 42.2 µg/mL (≈ 79.4 µM) | – | 16.8 µg/mL (≈ 31.6 µM) | – | – | – | – | 1.7 µg/mL (≈ 3.2 µM) | 1.7 µg/mL (≈ 3.2 µM) | COc1nc2ccc(-c3cccnc3)cc2cc1C(c1ccccc1)C(O)(CCc1ccccc1)CCN(C)C (centres unmarked) [Compound 36]
4 | 58.4 µg/mL (≈ 100 µM) | 9.3 µg/mL (≈ 15.9 µM) | 0.4 µg/mL (≈ 0.685 µM) | 1.9 µg/mL (≈ 3.25 µM) | 58.4 µg/mL (≈ 100 µM) | – | – | – | – | – | CSc1nc2ccc(Br)cc2cc1C(c1ccc(Cl)cc1)C(O)(CCc1ccccc1)CCN(C)C (centres unmarked) [Compound 31]
5 | – | 1.9 µg/mL (≈ 3.24 µM) | – | 1.9 µg/mL (≈ 3.24 µM) | 1.9 µg/mL (≈ 3.24 µM) | 3.7 µg/mL (≈ 6.31 µM) | – | – | 0.8 µg/mL (≈ 1.37 µM) | – | COc1nc2ccc(Br)cc2cc1C(c1ccc(Cl)cc1)C(O)(CCc1cccc(F)c1)CCN(C)C (centres unmarked) [Compound 77]
6 | – | – | 2.2 µg/mL (≈ 4.02 µM) | – | 19.4 µg/mL (≈ 35.4 µM) | 10.9 µg/mL (≈ 19.9 µM) | 2.2 µg/mL (≈ 4.02 µM) | 2.2 µg/mL (≈ 4.02 µM) | – | – | COc1nc2cc(C)c(Br)cc2cc1C(c1ccccc1)C(O)(CCc1ccccc1)CCN(C)C (racemic) [Compound 16]
7 | 9.7 µg/mL (≈ 20 µM) | 9.7 µg/mL (≈ 20 µM) | 3.4 µg/mL (≈ 7.02 µM) | 9.7 µg/mL (≈ 20 µM) | – | – | – | – | – | 12.2 µg/mL (≈ 25.2 µM) | COc1ccc2nc(OC)c(C(c3ccccc3)C(O)(CCc3ccccc3)CCN(C)C)cc2c1 (centres unmarked) [Compound 3]
8 | – | – | 2.3 µg/mL (≈ 4.05 µM) | – | 10.1 µg/mL (≈ 17.8 µM) | 4.5 µg/mL (≈ 7.92 µM) | 2.0 µg/mL (≈ 3.52 µM) | 2.0 µg/mL (≈ 3.52 µM) | – | – | COc1nc2ccc(Br)cc2cc1C(c1ccccc1)C(O)(CCc1ccccc1Cl)CCN(C)C (racemic) [Compound 54]
9 | – | – | 4.5 µg/mL (≈ 7.08 µM) | – | 22.6 µg/mL (≈ 35.6 µM) | 10.1 µg/mL (≈ 15.9 µM) | 4.5 µg/mL (≈ 7.08 µM) | 8.0 µg/mL (≈ 12.6 µM) | – | – | CCOCCOCCOc1nc2ccc(Br)cc2cc1C(c1ccccc1)C(O)(CCc1ccccc1)CCN(C)C (centres unmarked) [Compound 44]
10 | – | – | – | – | 7.1 µg/mL (≈ 12.6 µM) | 8.9 µg/mL (≈ 15.8 µM) | 8.0 µg/mL (≈ 14.2 µM) | 4.0 µg/mL (≈ 7.1 µM) | 1.8 µg/mL (≈ 3.19 µM) | – | COc1ccc(C(c2cc3cc(Br)ccc3nc2OC)C(O)(CCc2ccccc2)CCN(C)C)cc1 (centres unmarked) [Compound 73]
11 | – | – | 2.2 µg/mL (≈ 3.99 µM) | – | 1.7 µg/mL (≈ 3.08 µM) | 43.8 µg/mL (≈ 79.4 µM) | 43.8 µg/mL (≈ 79.4 µM) | 43.8 µg/mL (≈ 79.4 µM) | – | – | COc1nc2ccc(Br)cc2cc1C(c1ccccc1)C(O)(CCc1cccc(F)c1)CCN(C)C (racemic) [Compound 48]
12 | – | – | 2.3 µg/mL (≈ 4.05 µM) | – | 2.3 µg/mL (≈ 4.05 µM) | 56.8 µg/mL (≈ 100 µM) | 56.8 µg/mL (≈ 100 µM) | 56.8 µg/mL (≈ 100 µM) | – | – | COc1nc2ccc(Br)cc2cc1C(c1cccc(Cl)c1)C(O)(CCc1ccccc1)CCN(C)C (centres unmarked) [Compound 67]
13 | 58.6 µg/mL (≈ 100 µM) | 46.5 µg/mL (≈ 79.4 µM) | – | 46.5 µg/mL (≈ 79.4 µM) | – | – | – | – | 2.3 µg/mL (≈ 3.93 µM) | 9.3 µg/mL (≈ 15.9 µM) | COc1nc2ccc(Br)cc2cc1C(c1ccc(Cl)cc1)C(O)(CCc1ccc(F)cc1)CCN(C)C (centres unmarked) [Compound 79]
14 | – | – | 2.1 µg/mL (≈ 3.91 µM) | – | 10.7 µg/mL (≈ 19.9 µM) | 19.0 µg/mL (≈ 35.4 µM) | 8.5 µg/mL (≈ 15.8 µM) | 21.4 µg/mL (≈ 39.9 µM) | – | – | COc1nc2ccc(-c3cccs3)cc2cc1C(c1ccccc1)C(O)(CCc1ccccc1)CCN(C)C (racemic) [Compound 63]

Row | SMILES | IC90 [1] | IC90 [2] | IC90 SPN 6305 [3] | IC90 [4] | IC90 STA 29213 [5] | IC90 EFA 29212 [1] | IC90 PAE 27853 [2] | IC90 SPY 8668 [4] | IC90 [3] | IC90 [5]
15 | COc1nc2ccc(Br)cc2cc1C(c1ccccc1)C(O)(CCc1ccc(F)cc1)CCN(C)C (centres unmarked) [Compound 28] | – | – | 0.9 µg/mL (≈ 1.63 µM) | – | 1.7 µg/mL (≈ 3.08 µM) | 3.9 µg/mL (≈ 7.07 µM) | 3.9 µg/mL (≈ 7.07 µM) | 3.9 µg/mL (≈ 7.07 µM) | – | –
16 | COc1nc2ccc(Br)cc2cc1C(c1ccccc1)C(O)(CCc1ccccc1)CCN(C)C (centres unmarked) [Compound 18] | – | – | 2.1 µg/mL (≈ 3.94 µM) | – | 8.5 µg/mL (≈ 15.9 µM) | 10.6 µg/mL (≈ 19.9 µM) | 10.6 µg/mL (≈ 19.9 µM) | 8.5 µg/mL (≈ 15.9 µM) | – | –
